#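 Compound exposure: 48 hours, 5 concentrations, 96-well plates. GI50 is the concentration that inhibits growth by half. TGI: total growth inhibition.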
# Experiments:
# Experiment in all cases: growth of human tumour cells (NCI), 48 h
# HOP-62 NSCLC = test system: HOP-62 NSCLC
# MDA-MB-468 breast = test system: MDA-MB-468 breast
# UACC-62 melanoma = test system: UACC-62 melanoma
# SNB-19 CNS = test system: SNB-19 CNS
# RPMI-8226 leukemia = test system: RPMI-8226 leukemia
# HOP-92 NSCLC = test system: HOP-92 NSCLC
# HL-60(TB) leukemia = test system: HL-60(TB) leukemia
# NCI-H522 lung = test system: NCI-H522 lung
# A549 NSCLC = test system: A549 NSCLC
# IGROV1 ovarian = test system: IGROV1 ovarian
# HCC-2998 colon = test system: HCC-2998 colon
# HT29 colon = test system: HT29 colon
# OVCAR-5 ovarian = test system: OVCAR-5 ovarian
# K-562 leukemia = test system: K-562 leukemia
# SK-MEL-2 melanoma = test system: SK-MEL-2 melanoma
# NCI-H226 lung = test system: NCI-H226 lung
# RXF 393 renal = test system: RXF 393 renal
# BT-549 breast = test system: BT-549 breast
# LOX IMVI melanoma = test system: LOX IMVI melanoma
# U251 CNS = test system: U251 CNS
# NCI/ADR-RES ovarian = test system: NCI/ADR-RES ovarian
# SK-MEL-5 melanoma = test system: SK-MEL-5 melanoma
# MALME-3M melanoma = test system: MALME-3M melanoma
# COLO 205 colon = test system: COLO 205 colon
# NCI-H23 lung = test system: NCI-H23 lung
# ACHN renal = test system: ACHN renal
# KM12 colon = test system: KM12 colon
# M14 melanoma = test system: M14 melanoma
# OVCAR-8 ovarian = test system: OVCAR-8 ovarian
# HCT-15 colon = test system: HCT-15 colon
# SK-MEL-28 melanoma = test system: SK-MEL-28 melanoma
# DU-145 prostate = test system: DU-145 prostate
# MCF7 breast = test system: MCF7 breast
# OVCAR-3 ovarian = test system: OVCAR-3 ovarian
# SN12C renal = test system: SN12C renal
# HS 578T breast = test system: HS 578T breast
# SW-620 colon = test system: SW-620 colon
# OVCAR-4 ovarian = test system: OVCAR-4 ovarian
# TK-10 renal = test system: TK-10 renal
# UACC-257 melanoma = test system: UACC-257 melanoma
# CAKI-1 renal = test system: CAKI-1 renal
# MDA-MB-231 breast = test system: MDA-MB-231 breast
# EKVX NSCLC = test system: EKVX NSCLC
# NCI-H460 lung = test system: NCI-H460 lung
# SR leukemia = test system: SR leukemia
# SK-OV-3 ovarian = test system: SK-OV-3 ovarian
# SF-268 CNS = test system: SF-268 CNS
# SF-295 CNS = test system: SF-295 CNS
# 786-0 renal = test system: 786-0 renal
# MOLT-4 leukemia = test system: MOLT-4 leukemia
# SNB-75 CNS = test system: SNB-75 CNS
# HCT-116 colon = test system: HCT-116 colon
# MDA-MB-435 = test system: MDA-MB-435
# SF-539 CNS = test system: SF-539 CNS
# UO-31 renal = test system: UO-31 renal
# CCRF-CEM leukemia = test system: CCRF-CEM leukemia
# PC-3 prostate = test system: PC-3 prostate
# T-47D breast = test system: T-47D breast
# A498 renal = test system: A498 renal
compound,measurement,setting,value
COc1cc2c3c(n(CCCNCCO)c(=O)c2cc1OC)-c1nc2c(cc1C3=O)OCO2,GI50,HOP-62 NSCLC,0.416 µM
same,TGI,HOP-62 NSCLC,4.48 µM
same,GI50,MDA-MB-468 breast,1.41 µM
same,TGI,MDA-MB-468 breast,3.21 µM
same,GI50,UACC-62 melanoma,2.38 µM
same,TGI,UACC-62 melanoma,12.8 µM
same,GI50,SNB-19 CNS,2.52 µM
same,TGI,SNB-19 CNS,14.6 µM
same,GI50,RPMI-8226 leukemia,2.54 µM
same,TGI,RPMI-8226 leukemia,14.8 µM
same,GI50,HOP-92 NSCLC,9.2 µM
same,TGI,HOP-92 NSCLC,23.3 µM
same,GI50,HL-60(TB) leukemia,0.64 µM
same,TGI,HL-60(TB) leukemia,12.2 µM
same,GI50,NCI-H522 lung,0.886 µM
same,TGI,NCI-H522 lung,3.04 µM
same,GI50,A549 NSCLC,6.72 µM
same,TGI,A549 NSCLC,21.6 µM
same,GI50,IGROV1 ovarian,11.4 µM
same,TGI,IGROV1 ovarian,26.2 µM
same,GI50,HCC-2998 colon,2.14 µM
same,TGI,HCC-2998 colon,13.2 µM
same,GI50,HT29 colon,2.69 µM
same,TGI,HT29 colon,11.3 µM
same,GI50,OVCAR-5 ovarian,4.39 µM
same,TGI,OVCAR-5 ovarian,15.4 µM
same,GI50,K-562 leukemia,1.56 µM
same,TGI,K-562 leukemia,15 µM
same,GI50,SK-MEL-2 melanoma,17.7 µM
same,TGI,SK-MEL-2 melanoma,33 µM
same,GI50,NCI-H226 lung,1.54 µM
same,TGI,NCI-H226 lung,6.62 µM
same,GI50,RXF 393 renal,1.83 µM
same,TGI,RXF 393 renal,7.21 µM
same,GI50,BT-549 breast,6.31 µM
same,TGI,BT-549 breast,20.5 µM
same,GI50,LOX IMVI melanoma,0.534 µM
same,TGI,LOX IMVI melanoma,1.98 µM
same,GI50,U251 CNS,0.82 µM
same,TGI,U251 CNS,10.7 µM
same,GI50,NCI/ADR-RES ovarian,58.1 µM
same,TGI,NCI/ADR-RES ovarian,> 100 µM
same,GI50,SK-MEL-5 melanoma,1.54 µM
same,TGI,SK-MEL-5 melanoma,10.5 µM
same,GI50,MALME-3M melanoma,5.08 µM
same,TGI,MALME-3M melanoma,19.6 µM
same,GI50,COLO 205 colon,5.88 µM
same,TGI,COLO 205 colon,21.9 µM
same,GI50,NCI-H23 lung,0.582 µM
same,TGI,NCI-H23 lung,3.27 µM
same,GI50,ACHN renal,3.46 µM
same,TGI,ACHN renal,14 µM
same,GI50,KM12 colon,14.2 µM
same,TGI,KM12 colon,33.2 µM
same,GI50,M14 melanoma,4.35 µM
same,TGI,M14 melanoma,16.8 µM
same,GI50,OVCAR-8 ovarian,3.61 µM
same,TGI,OVCAR-8 ovarian,17.9 µM
same,GI50,HCT-15 colon,9.17 µM
same,TGI,HCT-15 colon,27.9 µM
same,GI50,SK-MEL-28 melanoma,13.5 µM
same,TGI,SK-MEL-28 melanoma,26.9 µM
same,GI50,DU-145 prostate,2.71 µM
same,TGI,DU-145 prostate,14.1 µM
same,GI50,MCF7 breast,0.256 µM
same,TGI,MCF7 breast,8.62 µM
same,GI50,OVCAR-3 ovarian,5.65 µM
same,TGI,OVCAR-3 ovarian,20.8 µM
same,GI50,SN12C renal,3.94 µM
same,TGI,SN12C renal,16.4 µM
same,GI50,HS 578T breast,11.6 µM
same,TGI,HS 578T breast,31.6 µM
same,GI50,SW-620 colon,2.01 µM
same,TGI,SW-620 colon,16.8 µM
same,GI50,OVCAR-4 ovarian,13 µM
same,TGI,OVCAR-4 ovarian,49.5 µM
same,GI50,TK-10 renal,19 µM
same,TGI,TK-10 renal,46 µM
same,GI50,UACC-257 melanoma,15.4 µM
same,TGI,UACC-257 melanoma,31.2 µM
same,GI50,CAKI-1 renal,2.39 µM
same,TGI,CAKI-1 renal,16.5 µM
same,GI50,MDA-MB-231 breast,11.3 µM
same,TGI,MDA-MB-231 breast,24.5 µM
same,GI50,EKVX NSCLC,7.47 µM
same,TGI,EKVX NSCLC,21.2 µM
same,GI50,NCI-H460 lung,1.22 µM
same,TGI,NCI-H460 lung,11.8 µM
same,GI50,SR leukemia,0.624 µM
same,TGI,SR leukemia,11.3 µM
same,GI50,SK-OV-3 ovarian,3.27 µM
same,TGI,SK-OV-3 ovarian,12.4 µM
same,GI50,SF-268 CNS,3.24 µM
same,TGI,SF-268 CNS,19.9 µM
same,GI50,SF-295 CNS,0.702 µM
same,TGI,SF-295 CNS,12 µM
same,GI50,786-0 renal,2.43 µM
same,TGI,786-0 renal,11.8 µM
same,GI50,MOLT-4 leukemia,0.364 µM
same,TGI,MOLT-4 leukemia,34.8 µM
same,GI50,SNB-75 CNS,0.83 µM
same,TGI,SNB-75 CNS,28.2 µM
same,GI50,HCT-116 colon,1.25 µM
same,TGI,HCT-116 colon,2.67 µM
same,GI50,MDA-MB-435,8.89 µM
same,TGI,MDA-MB-435,22.5 µM
same,GI50,SF-539 CNS,0.996 µM
same,TGI,SF-539 CNS,3.24 µM
same,GI50,UO-31 renal,7.47 µM
same,TGI,UO-31 renal,21.7 µM
same,GI50,CCRF-CEM leukemia,0.262 µM
same,TGI,CCRF-CEM leukemia,1.86 µM
same,GI50,PC-3 prostate,3.06 µM
same,TGI,PC-3 prostate,19.1 µM
same,GI50,T-47D breast,1.13 µM
same,TGI,T-47D breast,12.9 µM
same,GI50,A498 renal,13.4 µM
same,TGI,A498 renal,27.2 µM
